ChEMBL document CHEMBL4145521, “Regioselective synthesis of 3,4-diaryl-5-unsubstituted isoxazoles, analogues of natural cytostatic combretastatin A4” (Eur J Med Chem, 2018)

Columns and labels:
Format in all cases: functional
OVCAR-8 = assay: Cytotoxicity against human OVCAR8 cells assessed as cell growth at 1 uM incubated for 48 hrs by sulforhodamine B assay relative to control; conditions: OVCAR-8, 48 h, read-out: Activity
K562 = assay: Cytotoxicity against human K562 cells assessed as cell growth at 100 uM incubated for 48 hrs by sulforhodamine B assay relative to control; conditions: K562, 48 h, read-out: Activity
CAKI-1 = assay: Cytotoxicity against human Caki1 cells assessed as cell growth at 100 uM incubated for 48 hrs by sulforhodamine B assay relative to control; conditions: CAKI-1, 48 h, read-out: Activity
DU-145 = assay: Cytotoxicity against human DU145 cells assessed as cell growth at 0.1 uM incubated for 48 hrs by sulforhodamine B assay relative to control; conditions: DU-145, 48 h, read-out: Activity
MDA-MB-231 = assay: Cytotoxicity against human MDA-MB-231 cells assessed as cell growth at 10 uM incubated for 48 hrs by sulforhodamine B assay relative to control; conditions: MDA-MB-231, 48 h, read-out: Activity
HL-60(TB) [1] = assay: Cytotoxicity against human HL-60(TB) cells assessed as cell growth at 0.01 uM incubated for 48 hrs by sulforhodamine B assay relative to control; conditions: HL-60, 48 h, read-out: Activity
CCRF-CEM [2] = assay: Cytotoxicity against human CCRF-CEM cells assessed as cell growth at 10 uM incubated for 48 hrs by sulforhodamine B assay relative to control; conditions: read-out: Activity
Malme-3M = assay: Cytotoxicity against human MALME-3M cells assessed as cell growth at 10 uM incubated for 48 hrs by sulforhodamine B assay relative to control; conditions: read-out: Activity
SK-MEL-2 = assay: Cytotoxicity against human SK-MEL-2 cells assessed as cell growth at 10 uM incubated for 48 hrs by sulforhodamine B assay relative to control; conditions: SK-MEL-2, 48 h, read-out: Activity
SF-268 = assay: Cytotoxicity against human SF268 cells assessed as cell growth at 10 uM incubated for 48 hrs by sulforhodamine B assay relative to control; conditions: SF-268, 48 h, read-out: Activity
NCI-H226 [3] = assay: Cytotoxicity against human NCI-H226 cells assessed as cell growth at 1 uM incubated for 48 hrs by sulforhodamine B assay relative to control; conditions: NCI-H226, 48 h, read-out: Activity
SK-OV-3 = assay: Cytotoxicity against human SKOV3 cells assessed as cell growth at 10 uM incubated for 48 hrs by sulforhodamine B assay relative to control; conditions: SK-OV-3, 48 h, read-out: Activity
UACC-62 [4] = assay: Cytotoxicity against human UACC62 cells assessed as cell growth at 10 uM incubated for 48 hrs by sulforhodamine B assay relative to control; conditions: UACC-62, 48 h, read-out: Activity
NCI-H226 [5] = assay: Cytotoxicity against human NCI-H226 cells assessed as cell growth at 0.01 uM incubated for 48 hrs by sulforhodamine B assay relative to control; conditions: NCI-H226, 48 h, read-out: Activity
NCI-H226 [6] = assay: Cytotoxicity against human NCI-H226 cells assessed as cell growth at 10 uM incubated for 48 hrs by sulforhodamine B assay relative to control; conditions: NCI-H226, 48 h, read-out: Activity
HCC 2998 = assay: Cytotoxicity against human HCC2998 cells assessed as cell growth at 0.01 uM incubated for 48 hrs by sulforhodamine B assay relative to control; conditions: HCC 2998, 48 h, read-out: Activity
NCI-H460 = assay: Cytotoxicity against human NCI-H460 cells incubated for 48 hrs by sulforhodamine B assay; conditions: NCI-H460, 48 h
HL-60(TB) [7] = assay: Cytotoxicity against human HL-60(TB) cells assessed as cell growth at 0.1 uM incubated for 48 hrs by sulforhodamine B assay relative to control; conditions: HL-60, 48 h, read-out: Activity
OVCAR-4 = assay: Cytotoxicity against human OVCAR4 cells assessed as cell growth at 10 uM incubated for 48 hrs by sulforhodamine B assay relative to control; conditions: OVCAR-4, 48 h, read-out: Activity
COLO 205 = assay: Cytotoxicity against human COLO205 cells assessed as cell growth at 1 uM incubated for 48 hrs by sulforhodamine B assay relative to control; conditions: COLO 205, 48 h, read-out: Activity
HT-29 [8] = assay: Cytotoxicity against human HT-29 cells assessed as cell growth at 1 uM incubated for 48 hrs by sulforhodamine B assay relative to control; conditions: HT-29, 48 h, read-out: Activity
HCT-15 = assay: Cytotoxicity against human HCT15 cells assessed as cell growth at 0.01 uM incubated for 48 hrs by sulforhodamine B assay relative to control; conditions: HCT-15, 48 h, read-out: Activity
Hs-578T = assay: Cytotoxicity against human Hs 578T cells incubated for 48 hrs by sulforhodamine B assay
NCI/ADR-RES = assay: Cytotoxicity against human NCI/ADR-RES cells assessed as cell growth at 0.1 uM incubated for 48 hrs by sulforhodamine B assay relative to control; conditions: read-out: Activity
CCRF-CEM [9] = assay: Cytotoxicity against human CCRF-CEM cells assessed as cell growth at 0.01 uM incubated for 48 hrs by sulforhodamine B assay relative to control; conditions: read-out: Activity
OVCAR-3 = assay: Cytotoxicity against human OVCAR3 cells assessed as cell growth at 0.01 uM incubated for 48 hrs by sulforhodamine B assay relative to control; conditions: OVCAR-3, 48 h, read-out: Activity
UACC-62 [10] = assay: Cytotoxicity against human UACC62 cells incubated for 48 hrs by sulforhodamine B assay; conditions: UACC-62, 48 h
SK-MEL-28 = assay: Cytotoxicity against human SK-MEL-28 cells assessed as cell growth at 10 uM incubated for 48 hrs by sulforhodamine B assay relative to control; conditions: SK-MEL-28, 48 h, read-out: Activity
A498 = assay: Cytotoxicity against human A498 cells assessed as cell growth at 1 uM incubated for 48 hrs by sulforhodamine B assay relative to control; conditions: A498, 48 h, read-out: Activity
HT-29 [11] = assay: Cytotoxicity against human HT-29 cells assessed as cell growth at 0.1 uM incubated for 48 hrs by sulforhodamine B assay relative to control; conditions: HT-29, 48 h, read-out: Activity
SNB-19 = assay: Cytotoxicity against human SNB19 cells assessed as cell growth at 10 uM incubated for 48 hrs by sulforhodamine B assay relative to control; conditions: SNB-19, 48 h, read-out: Activity
U-251 = assay: Cytotoxicity against human U251 cells assessed as cell growth at 0.01 uM incubated for 48 hrs by sulforhodamine B assay relative to control; conditions: U-251, 48 h, read-out: Activity
[12] = read-out: LC50 (the source's name)
[13] = read-out: pLC50 (the source's name) (converted)

**Q.** How did the growth at 1 µM (OVCAR-8) turn out when COc1ccc(-c2nocc2-c2cc(OC)c(OC)c(OC)c2)cc1 was run?
**A.** 27%

**Q.** And the growth at 100 µM (K562)?
**A.** 4%

**Q.** What about the growth at 100 µM (CAKI-1) of the same compound?
**A.** 14%

**Q.** And the growth at 0.1 µM (DU-145)?
**A.** 71%

**Q.** And the growth at 10 µM (MDA-MB-231)?
**A.** 17%

**Q.** What about the growth at 0.01 µM (HL-60(TB) [1]) of the same compound?
**A.** 105%

**Q.** And the growth at 10 µM (CCRF-CEM [2])?
**A.** 24%

**Q.** And the growth at 10 µM (Malme-3M)?
**A.** 60%

**Q.** What about the growth at 10 µM (SK-MEL-2) of the same compound?
**A.** 43%

**Q.** What about the growth at 10 µM (SF-268) of the same compound?
**A.** 27%

**Q.** And the growth at 1 µM (NCI-H226 [3])?
**A.** 75%

**Q.** And the growth at 10 µM (SK-OV-3)?
**A.** 32%

**Q.** And the growth at 10 µM (UACC-62 [4])?
**A.** 5%

**Q.** What about the growth at 0.01 µM (NCI-H226 [5]) of the same compound?
**A.** 100%

**Q.** What about the growth at 10 µM (NCI-H226 [6]) of the same compound?
**A.** 67%

**Q.** And the growth at 0.01 µM (HCC 2998)?
**A.** 97%

**Q.** What about the GI50 (NCI-H460; read-out: GI50) of the same compound?
**A.** 53.6 nM

**Q.** And the CC50 (NCI-H460; [12])?
**A.** > 100 µM

**Q.** What about the TGI (NCI-H460; read-out: TGI) of the same compound?
**A.** 12.7 µM

**Q.** And the GI50 (NCI-H460; read-out: pGI50 (converted))?
**A.** 53.7 nM

**Q.** And the CC50 (NCI-H460; [13])?
**A.** > 100 µM

**Q.** What about the TGI (NCI-H460; read-out: pTGI (converted)) of the same compound?
**A.** 12.6 µM

**Q.** And the growth at 0.1 µM (HL-60(TB) [7])?
**A.** 25%

**Q.** What about the growth at 10 µM (OVCAR-4) of the same compound?
**A.** 32%

**Q.** And the growth at 1 µM (COLO 205)?
**A.** 11%

**Q.** And the growth at 1 µM (HT-29 [8])?
**A.** 2%

**Q.** And the growth at 0.01 µM (HCT-15)?
**A.** 88%

**Q.** And the GI50 (Hs-578T; read-out: GI50)?
**A.** 396 nM

**Q.** And the CC50 (Hs-578T; [12])?
**A.** > 100 µM

**Q.** And the TGI (Hs-578T; read-out: TGI)?
**A.** > 100 µM

**Q.** And the GI50 (Hs-578T; read-out: pGI50 (converted))?
**A.** 398 nM

**Q.** What about the CC50 (Hs-578T; [13]) of the same compound?
**A.** > 100 µM

**Q.** What about the TGI (Hs-578T; read-out: pTGI) of the same compound?
**A.** > 100 µM

**Q.** And the growth at 0.1 µM (NCI/ADR-RES)?
**A.** 34%

**Q.** What about the growth at 0.01 µM (CCRF-CEM [9]) of the same compound?
**A.** 111%

**Q.** And the growth at 0.01 µM (OVCAR-3)?
**A.** 100%

**Q.** What about the GI50 (UACC-62 [10]; read-out: GI50) of the same compound?
**A.** 55.7 nM

**Q.** And the LC50 (concentration killing 50% of cells) (UACC-62 [10]; read-out: LC50)?
**A.** > 100 µM

**Q.** What about the TGI (UACC-62 [10]; read-out: TGI) of the same compound?
**A.** 12.9 µM

**Q.** What about the GI50 (UACC-62 [10]; read-out: pGI50 (converted)) of the same compound?
**A.** 56.2 nM

**Q.** What about the LC50 (concentration killing 50% of cells) (UACC-62 [10]; read-out: pLC50 (converted)) of the same compound?
**A.** > 100 µM

**Q.** What about the TGI (UACC-62 [10]; read-out: pTGI (converted)) of the same compound?
**A.** 12.9 µM

**Q.** What about the growth at 10 µM (SK-MEL-28) of the same compound?
**A.** 46%

**Q.** And the growth at 1 µM (A498)?
**A.** -3%

**Q.** What about the growth at 0.1 µM (HT-29 [11]) of the same compound?
**A.** 13%

**Q.** And the growth at 10 µM (SNB-19)?
**A.** 29%

**Q.** What about the growth at 0.01 µM (U-251) of the same compound?
**A.** 99%
